Experimental data taken from ChEMBL document CHEMBL6127052, “Discovery of membrane-targeting amphiphilic honokiol derivatives containing an oxazolethione moiety to combat methicillin-resistant Staphylococcus aureus (MRSA) infections” (Eur J Med Chem, 2024).
Calls of active or inactive are those of the source.

How the values were obtained:
Staphylococcus aureus [1] = test: Antibacterial activity against methicillin-resistant Staphylococcus aureus clinical isolate M11 by CLSI based micro-broth dilution method; type: functional
[2] = Hemolytic activity in sheep erythrocytes incubated for 1 hr by absorbance based assay; type: toxicity, cell-based, Ovis aries, Erythrocyte
Staphylococcus aureus [3] = test: Bactericidal activity against Staphylococcus aureus ATCC 29213 at 8 times MIC incubated upto 8 hrs by time-kill assay; type: functional, organism-based
Staphylococcus aureus [4] = test: Bactericidal activity against methicillin-resistant Staphylococcus aureus clinical isolate M12 at 8 times MIC incubated upto 8 hrs by time-kill assay; type: functional, organism-based
Staphylococcus aureus [5] = test: Induction of membrane depolarization in methicillin-resistant Staphylococcus aureus clinical isolate M12 at 8 to 32 times MIC measured every 2 mins for 10 times by DiSC3(5) dye based analysis; type: functional, organism-based; details: time 20.0 min
Staphylococcus aureus [6] = test: Disruption of cell membrane in methicillin-resistant Staphylococcus aureus clinical isolate M12 assessed as fold increase in DNA leakage at 8 times MIC incubated for 4 hrs by […] relative to control; type: functional
Staphylococcus aureus [7] = test: Disruption of cell membrane in methicillin-resistant Staphylococcus aureus clinical isolate M12 assessed as accumulation of intracellular ROS level incubated for 40 mins by DCFH-DA probe based analysis; type: functional, organism-based; details: dose <= 128.0 µg/ml
[8] = Stability in sheep plasma infected with methicillin-resistant Staphylococcus aureus clinical isolate M12 at 16 ug/ml pretreated compound with plasma for 6 hrs followed by bacterial infection for 16 to 18 hrs; type: ADME, cell-free, Ovis aries; details: at 16 µg/mL, time 22-24 hrs
[9] = Toxicity in KM mouse assessed as mental abnormality at 5 to 80 mg/kg, sc; type: organism-based; details: in vivo, dose 5-80 mg/kg
[10] = Toxicity in KM mouse assessed as skin abnormality at <20 mg/kg, sc; type: organism-based; details: in vivo
[11] = Toxicity in KM mouse assessed as change in HGB level at 20 mg/kg, sc measured after 24 hrs; type: organism-based; details: in vivo
[12] = Toxicity in KM mouse assessed as change in WBC count at 20 mg/kg, sc measured after 24 hrs; type: organism-based; details: in vivo
[13] = Toxicity in KM mouse assessed as degeneration of hepatocytes at 20 mg/kg, sc measured after 24 hrs by H and E staining based analysis; type: organism-based; details: in vivo
[14] = Toxicity in KM mouse assessed as edema in hepatocytes at 20 mg/kg, sc measured after 24 hrs by H and E staining based analysis; type: organism-based; details: in vivo
[15] = Toxicity in KM mouse assessed as degeneration of lung epithelial cells at 20 mg/kg, sc measured after 24 hrs by H and E staining based analysis; type: organism-based; details: in vivo
[16] = Toxicity in KM mouse assessed as edema in renal tubular epithelial cells at 20 mg/kg, sc measured after 24 hrs by H and E staining based analysis; type: organism-based; details: in vivo
[17] = Toxicity in KM mouse assessed as necrosis in renal tubular epithelial cells at 20 mg/kg, sc measured after 24 hrs by H and E staining based analysis; type: organism-based; details: in vivo
[18] = Toxicity in KM mouse assessed as inflammatory cell infiltration in renal tubular epithelial cells at 20 mg/kg, sc measured after 24 hrs by H and E staining based analysis; type: organism-based; details: in vivo
[19] = Toxicity in KM mouse assessed as pathological change in white medulla of spleen at 20 mg/kg, sc measured after 24 hrs by H and E staining based analysis; type: organism-based; details: in vivo
[20] = Toxicity in KM mouse assessed as pathological change in heart at 20 mg/kg, sc measured after 24 hrs by H and E staining based analysis; type: organism-based; details: in vivo
[21] = Toxicity in BALB/c mouse assessed as animal death at 40 mg/kg, ip bid for 7 days; type: organism-based; details: in vivo, 168 h, time 7 day
[22] = Toxicity in BALB/c mouse assessed as change in blood routine index at 15 mg/kg, ip bid for 7 days; type: organism-based; details: in vivo, 168 h, time 7 day
[23] = Toxicity in BALB/c mouse assessed as change in blood biochemistry index at 15 mg/kg, ip bid for 7 days; type: organism-based; details: in vivo, 168 h, time 7 day
[24] = Toxicity in BALB/c mouse assessed as inflammatory cell infiltration in renal tubular epithelial cells at 15 mg/kg, ip bid for 7 days; type: organism-based; details: in vivo, 168 h, time 7 day
[25] = Toxicity in BALB/c mouse assessed as pathological change in white medulla of spleen at 15 mg/kg, ip bid for 7 days; type: organism-based; details: in vivo, 168 h, time 7 day
Staphylococcus aureus [26] = test: Antibacterial activity against methicillin-resistant Staphylococcus aureus clinical isolate M12 infected in KM mouse assessed as intact skin at infection site at 10 mg/kg, sc measured after 24 hrs; type: functional, organism-based
Staphylococcus aureus [27] = test: Antibacterial activity against methicillin-resistant Staphylococcus aureus clinical isolate M12 infected in KM mouse assessed as decrease in pus formation in subcutaneous area at 10 mg/kg, sc measured after 24 hrs; type: functional, organism-based
Staphylococcus aureus [28] = test: Bactericidal activity against methicillin-resistant Staphylococcus aureus clinical isolate M12 infected in KM mouse assessed as decrease in inflammatory cells in epidermis at 10 mg/kg, sc measured after 24 hrs; type: functional, organism-based
Staphylococcus aureus [29] = test: Antibacterial activity against methicillin-resistant Staphylococcus aureus clinical isolate M12 infected in KM mouse assessed as decrease in bacterial load in skin tissues at 10 mg/kg, sc measured after 24 hrs by drop-plate counting method (reference value: 6.7); type: functional; set-up: scale not given: the % may be the effect or the level left
[30] = Toxicity in KM mouse infected with methicillin-resistant Staphylococcus aureus clinical isolate M12 assessed as histopathological abnormality in lung at 5 to 10 mg/kg, sc measured after 24 hrs by H and E staining based analysis; type: organism-based; details: in vivo, dose 5-10 mg/kg
[31] = Toxicity in KM mouse infected with methicillin-resistant Staphylococcus aureus clinical isolate M12 assessed as histopathological abnormality in spleen at 5 to 10 mg/kg, sc measured after 24 hrs by H and E staining based analysis; type: organism-based; details: in vivo, dose 5-10 mg/kg
[32] = Toxicity in KM mouse infected with methicillin-resistant Staphylococcus aureus clinical isolate M12 assessed as histopathological abnormality in kidney at 5 to 10 mg/kg, sc measured after 24 hrs by H and E staining based analysis; type: organism-based; details: in vivo, dose 5-10 mg/kg
Staphylococcus aureus [33] = test: Antibacterial activity against methicillin-resistant Staphylococcus aureus clinical isolate M12 infected in sepsis BALB/c mouse model assessed as decrease in degeneration of hepatocytes at 12 mg/kg, ip administered consecutively at 12 hr-interval for 24 hrs measured after 24 hrs post-last dose by H and E staining based analysis; type: functional, organism-based; details: time 48.0 hrs
Staphylococcus aureus [34] = test: Antibacterial activity against methicillin-resistant Staphylococcus aureus clinical isolate M12 infected in sepsis BALB/c mouse model assessed as decrease in deformation of hepatocytes at 6 mg/kg, ip administered consecutively at 12 hr-interval for 24 hrs measured after 24 hrs post-last dose by H and E staining based analysis; type: functional, organism-based; details: time 48.0 hrs
Staphylococcus aureus [35] = test: Antibacterial activity against methicillin-resistant Staphylococcus aureus clinical isolate M12 infected in sepsis BALB/c mouse model assessed as decrease in pathological change in white medulla of spleen at 6 mg/kg, ip administered consecutively at 12 hr-interval for 24 hrs measured after 24 hrs post-last dose by H and E staining based analysis; type: functional, organism-based; details: time 48.0 hrs
Staphylococcus aureus [36] = test: Antibacterial activity against methicillin-resistant Staphylococcus aureus clinical isolate M12 infected in sepsis BALB/c mouse model assessed as decrease in necrosis in renal tubular epithelial cells at 6 to 12 mg/kg, ip administered consecutively at 12 hr-interval for 24 hrs measured after 24 hrs post-last dose by H and E staining based analysis; type: functional, organism-based; details: dose 6-12 mg/kg, time 48.0 hrs

C=CCc1cc(-c2ccc(OCCC[N+](C)(C)CC(=O)NCCCC)c(CC=C)c2)c2oc(=S)n(Cc3ccc(F)cc3)c2c1.[Br-]
~4: fold change (FC) (Staphylococcus aureus [6])
active: Activity (Staphylococcus aureus [3]) | Activity (Staphylococcus aureus [4]) | Activity (Staphylococcus aureus [5]) | Activity (Staphylococcus aureus [7]) Dose-Dependent Effect | Activity (Staphylococcus aureus [26]) | Activity (Staphylococcus aureus [27]) | Activity (Staphylococcus aureus [28]) | Activity (Staphylococcus aureus [33]) | Activity (Staphylococcus aureus [36])
157 µg/mL: HC50 at 1 h [2]
inactive: Activity (Staphylococcus aureus [34]) | Activity (Staphylococcus aureus [35])
4 µg/mL: MIC (Staphylococcus aureus [1])
4.1%: Activity (Staphylococcus aureus [29])
Toxic: Activity [21]
Stable: Stability [8]
Non-Toxic: Activity [9] | Activity [10] | Activity [11] | Activity [12] | Activity [13] | Activity [14] | Activity [15] | Activity [16] | Activity [17] | Activity [18] | Activity [19] | Activity [20] | Activity [22] | Activity [23] | Activity [24] | Activity [25] | Activity [30] | Activity [31] | Activity [32]
